Experimental data taken from PubChem BioAssay AID489034 (Sanford-Burnham Center for Chemical Genomics, 2010).
The source made the active and inactive calls.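 How the source made its calls: active means mean IC50 at or below a set limit; inactive means the rest.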

Tested on: not listed separately
Assay: NF-kB reporter suppression in B cells – 697 B cells, PMA/ionomycin, luminescence, dose response (AID 489034)
Conditions: 697 B-cell NF-kB luciferase reporter, PMA/ionomycin, 16 h; at 80 µM (top of the series)

Question: With `N=c1ccn2c(n1)O[C@H]1[C@@H](CO)[C@H](O)O[C@H]12` as the compound, how does the inhibition read?
Answer: 48.5%

Question: Which inhibition does the source give for `N=c1c2c(n(Cc3ccc(Br)cc3)c3c1CCC3)CCCC2` here?
Answer: 60.6% (inactive)

Tested on: 697 B-cell NF-kB luciferase reporter, PMA/ionomycin, 16 h
Assay: as above
Conditions: not given

Question: For `COc1ccc(CCNc2c(C)c(C)nc3ncnn23)cc1`, which IC50 is on record?
Answer: > 80000 nM (inactive)

Question: For `COc1ccccc1C(=O)Nc1nc2ccccc2[nH]1`, which IC50 is on record?
Answer: 454 nM

Question: With `COc1ccc(CN(C)c2ccc(S(=O)(=O)N3CCN(C)CC3)cc2[N+](=O)[O-])cc1OC` as the compound, how does the IC50 read?
Answer: > 80000 nM (inactive)

Question: For `C=CC(=O)Nc1ccc(Nc2nc(NC3CCC(N(C)C)CC3)nc3c2ncn3C(C)C)cc1` (stereo not drawn), which IC50 is on record?
Answer: 593 nM

Question: For `CCOc1cc(S(=O)(=O)NCc2ccncc2)ccc1Cl`, which IC50 is on record?
Answer: > 80000 nM (inactive)

Question: For `O=C1/C(=C/c2ccccc2)C[C@@]2(O)[C@H]3Cc4ccc(O)c5c4[C@@]2(CCN3CC2CC2)C1O5` (stereo partly drawn), which IC50 is on record?
Answer: 6200 nM

Question: With `O=C(/C=C/c1ccccc1)Nc1cccc(C(=O)O)c1` as the compound, how does the IC50 read?
Answer: 620 nM

Question: For `O=C(c1ccc(Br)cc1)c1cc([N+](=O)[O-])ccc1N1CCCCC1`, which IC50 is on record?
Answer: > 80000 nM (inactive)

Question: For `OCCCNc1nccc(-c2cc(Nc3cccc(Cl)c3)ncn2)n1`, which IC50 is on record?
Answer: 4100 nM

Question: With `Cc1cc(Cl)c(S(=O)(=O)N2CCCCCC2)cc1OCC(=O)NC1CCCCC1` as the compound, how does the IC50 read?
Answer: > 80000 nM (inactive)

Question: With `O=C(CCl)N1CCCC1c1ccc2c(c1)OCCO2` (stereo not drawn) as the compound, how does the IC50 read?
Answer: 478 nM

Question: For `C#CC(=O)N(c1ccc(OC)cc1OC)C(C(=O)NC1CCCC1)c1cccs1` (stereo not drawn), which IC50 is on record?
Answer: 252 nM

Question: With `O=C(NCCc1ccccc1F)c1ccc2c(c1)OCCO2` as the compound, how does the IC50 read?
Answer: 675 nM

Question: With `COc1ccc(-c2cc3nc(C)n(N)c(=O)c3s2)cc1` as the compound, how does the IC50 read?
Answer: 673 nM

Question: Which IC50 does the source give for `CCCCCc1ccc(OCCCC[n+]2cccc(C)c2)c(CCCCC)c1` here?
Answer: > 80000 nM (inactive)

Question: With `CN(C(=O)OC(C)(C)C)c1ccc(-c2nc3ccccc3s2)cc1` as the compound, how does the IC50 read?
Answer: < 160 nM

Question: Which IC50 does the source give for `N#Cc1c(NC(=O)CSc2ncn[nH]2)sc2c1CCCC2` here?
Answer: 300 nM

Question: With `Nc1nc(F)nc2c1ncn2[C@@H]1O[C@H](CO)[C@@H](O)[C@H]1O` as the compound, how does the IC50 read?
Answer: 1370 nM

Question: For `Cc1ccc(NC(=O)COc2ccc(N(C)C(=O)C(C)(C)C)cc2)cc1S(=O)(=O)N1CCCCC1`, which IC50 is on record?
Answer: > 80000 nM (inactive)

Question: For `COCCn1c(C)cc(C2=NNC(=NC3CC3)SC2)c1C`, which IC50 is on record?
Answer: < 160 nM

Question: Which IC50 does the source give for `O=C(CN1C(=O)c2ccccc2S1(=O)=O)c1ccc2c(c1)OCCCO2` here?
Answer: < 160 nM

Question: With `Cn1nccc1C(=O)NC1CCCc2c1cnn2-c1ccccc1F` (stereo not drawn) as the compound, how does the IC50 read?
Answer: 56300 nM (inactive)

Question: For `CCCCCCCCCn1ccc(=N)cc1`, which IC50 is on record?
Answer: 46200 nM (inactive)

Question: Which IC50 does the source give for `CC(=O)OC[C@]12CCC(C)=C[C@H]1O[C@@H]1[C@H](O)[C@@H](OC(C)=O)[C@@]2(C)[C@]12CO2` here?
Answer: < 160 nM

Question: With `C[C@@H]1O[C@@H](O[C@@H]2C=C3CCC4C(CC[C@]5(C)[C@@H](c6ccc(=O)oc6)CC[C@]45O)[C@@]3(C)CC2)[C@H](O)[C@H](O)[C@H]1O` (stereo partly drawn) as the compound, how does the IC50 read?
Answer: < 160 nM

Question: Which IC50 does the source give for `CC1CCc2c(sc(NC(=O)CSc3ncn[nH]3)c2C#N)C1` (stereo not drawn) here?
Answer: 209 nM

Question: With `CCCCCCCCCCOC(=O)Cn1c(COc2ccccc2OC)[n+](C)c2ccccc21` as the compound, how does the IC50 read?
Answer: > 80000 nM (inactive)

Question: For `CCCCC[n+]1cccc2c3ccccc3ccc21`, which IC50 is on record?
Answer: > 80000 nM (inactive)

Question: For `Cn1nc(CC(=O)Nc2ccc3c(c2)OCCO3)c2ccccc2c1=O`, which IC50 is on record?
Answer: 68700 nM (inactive)

Question: Which IC50 does the source give for `COc1cc(SC)ccc1C(=O)Nc1nc2ccccc2[nH]1` here?
Answer: < 160 nM

Question: With `Cc1cc2sc3ccc(C#CC4(O)CCCCC4)cc3c(=O)c2cc1C` as the compound, how does the IC50 read?
Answer: < 160 nM

Question: With `COc1ccc(CNc2ncc(-c3ccc(F)cc3)n2C)c2ccccc12` as the compound, how does the IC50 read?
Answer: 1570 nM

Question: For `C=C1C(=O)O[C@@H]2C[C@@H](C)[C@@H]3C=CC(=O)[C@@]3(C)[C@@H](O)[C@H]12`, which IC50 is on record?
Answer: > 80000 nM (inactive)

Question: Which IC50 does the source give for `Cc1nn(C(C)(C)C)c(C)c1/C=N/OC(=O)Nc1ccc(Cl)cc1` here?
Answer: < 160 nM

Question: With `CCC(C)(C)c1ccc(OCCCC[n+]2ccc(C)cc2)c(C(C)(C)CC)c1` as the compound, how does the IC50 read?
Answer: 22300 nM (inactive)

Question: For `COc1ccc(OC)c(C2C3=C(COC3=O)Nc3cc4c(cc32)OCO4)c1` (stereo not drawn), which IC50 is on record?
Answer: > 80000 nM (inactive)

Question: For `COc1ccc(NS(=O)(=O)c2cccc(NC(=O)c3ccc(Cl)nc3)c2)cc1`, which IC50 is on record?
Answer: 70300 nM (inactive)

Question: For `CCc1cc2c(Sc3nc4ccccc4s3)ncnc2s1`, which IC50 is on record?
Answer: < 160 nM

Question: With `Nc1nc(Cl)nc2c1ncn2C1CC(O)C(CO)O1` (stereo not drawn) as the compound, how does the IC50 read?
Answer: > 80000 nM (inactive)

Question: Which IC50 does the source give for `O=C(CCl)N=c1sccn1Cc1ccccc1Cl` here?
Answer: 222 nM

Question: With `CCN1/C(=C/c2ccc3cc(C)ccc3[n+]2CC)Sc2ccccc21` as the compound, how does the IC50 read?
Answer: > 80000 nM (inactive)

Question: For `C[n+]1c(-c2ccccc2)c2cc(N)ccc2c2ccc(N)cc21`, which IC50 is on record?
Answer: > 80000 nM (inactive)

Question: Which IC50 does the source give for `CC(=O)OC(C)(C)/C=C/C(=O)[C@](C)(O)C1[C@H](O)C[C@@]2(C)C3CC=C4C(C[C@H](O)C(=O)C4(C)C)[C@]3(C)C(=O)C[C@]12C` (stereo partly drawn) here?
Answer: 7020 nM

Question: For `COC(=O)Cc1ccc(NC(=O)c2ccc(C(C)(C)C)cc2)cc1`, which IC50 is on record?
Answer: < 160 nM

Question: Which IC50 does the source give for `O=S(=O)(NCC1CCCO1)c1ccc(-c2ccc(S(=O)(=O)NCC3CCCO3)cc2)cc1` (stereo not drawn) here?
Answer: > 80000 nM (inactive)

Question: Which IC50 does the source give for `CC[n+]1c(C=C2C=C(C)OC(C)=C2)sc2ccccc21` here?
Answer: > 80000 nM (inactive)

Question: With `Cc1ccnc(NC(=O)CCCOc2cc(=O)n(C)c3ccccc23)c1` as the compound, how does the IC50 read?
Answer: 8540 nM

Question: Which IC50 does the source give for `CCOc1ccc(-n2c(-c3ccc(OC)cc3)c[n+]3c2CCCCC3)cc1` here?
Answer: > 80000 nM (inactive)

Question: For `O=C(Nc1cccc(C(=O)O)c1)Nc1ccc2c(c1)OCO2`, which IC50 is on record?
Answer: 1140 nM

Question: With `CCn1c(C)nc2cc(-c3nc4n(n3)Cc3ccccc3-4)ccc21` as the compound, how does the IC50 read?
Answer: 198 nM

Question: For `CC(C)c1ccc(-c2nnn(CCC(=O)O)n2)cc1`, which IC50 is on record?
Answer: 202 nM

Question: Which IC50 does the source give for `O=C(Nc1nc(-c2ccc(F)c(F)c2)cs1)c1ccc(OCC2CCCO2)cc1` (stereo not drawn) here?
Answer: > 80000 nM (inactive)

Question: With `CCCCCCn1c2c(c(=N)c3c1CCC3)CCC2` as the compound, how does the IC50 read?
Answer: > 80000 nM (inactive)

Question: With `C[C@@H]1C[C@@H]2O[C@H]2/C=C\C=C\C(=O)Cc2c(Cl)c(O)cc(O)c2C(=O)O1` as the compound, how does the IC50 read?
Answer: 275 nM

Question: For `Cc1ccc(-c2csc(NC(=O)C3CCN(S(=O)(=O)c4cccs4)CC3)n2)cc1`, which IC50 is on record?
Answer: > 80000 nM (inactive)

Question: With `COc1cc(CSc2nnnn2-c2ccc(C)cc2)cc(OC)c1OC` as the compound, how does the IC50 read?
Answer: > 80000 nM (inactive)

Question: With `Cc1ccc(Cn2ccsc2=NC(=O)CCl)cc1` as the compound, how does the IC50 read?
Answer: 489 nM

Question: With `COc1ccc(CCNc2ncnc3sc(C)cc23)cc1OC` as the compound, how does the IC50 read?
Answer: 33400 nM (inactive)

Question: Which IC50 does the source give for `COc1cc(NC(=O)COc2cc(O)c3c(c2)OC(C)(C)CC3=O)cc(OC)c1OC` here?
Answer: 36900 nM (inactive)

Question: With `COc1ccc(/C=C/c2cc(-c3ccc(C)cc3)o[n+]2C)cc1` as the compound, how does the IC50 read?
Answer: 5740 nM

Question: With `CC(C)(C)c1ccc(C(=O)Nc2ccc(CC(=O)O)cc2)o1` as the compound, how does the IC50 read?
Answer: < 160 nM

Question: For `c1ccc2sc(Sc3ncnc4sccc34)nc2c1`, which IC50 is on record?
Answer: 197 nM

Question: For `Cc1ccc(OCCN2CCN(c3ncnc4sc(C)c(C)c34)CC2)cc1`, which IC50 is on record?
Answer: > 80000 nM (inactive)

Question: With `CC(=O)c1cn(Cc2ccccc2C#N)c2ccccc12` as the compound, how does the IC50 read?
Answer: > 80000 nM (inactive)

Question: For `CCOC(=O)C1CCCN(S(=O)(=O)c2ccc(S(=O)(=O)N(CC)CC)cc2)C1` (stereo not drawn), which IC50 is on record?
Answer: > 80000 nM (inactive)

Question: Which IC50 does the source give for `Cc1cc(N2CCN(c3nc4ccccc4s3)CC2)n2ncnc2n1` here?
Answer: > 80000 nM (inactive)

Question: Which IC50 does the source give for `COc1ccc(C[C@H]2NC[C@H](O)[C@H]2OC(C)=O)cc1` here?
Answer: < 160 nM

Question: With `O=C(CCl)N=c1sccn1Cc1ccc(Cl)cc1Cl` as the compound, how does the IC50 read?
Answer: < 160 nM

Question: With `CCCCCNC(=O)c1ccc2c(=O)n(CC3CCCO3)c(=O)[nH]c2c1` (stereo not drawn) as the compound, how does the IC50 read?
Answer: > 80000 nM (inactive)

Question: For `C[C@@H]1O[C@@H](O[C@@H]2C=C3CC[C@@H]4C(CC[C@]5(C)[C@@H](c6ccc(=O)oc6)CC[C@]45O)[C@@]3(C)CC2)[C@H](O)[C@H](O)[C@H]1O` (stereo partly drawn), which IC50 is on record?
Answer: < 160 nM

Question: Which IC50 does the source give for `c1ccc(-c2ccc(-c3nc(-c4ccccn4)no3)cc2)cc1` here?
Answer: 967 nM

Question: Which IC50 does the source give for `C=C1C(=O)O[C@@H]2C[C@@H](C)[C@@H]3C=CC(=O)[C@@]3(C)[C@@H](OC(C)=O)[C@H]12` here?
Answer: > 80000 nM (inactive)

Question: Which IC50 does the source give for `COc1cccc2c1C(=O)c1c(O)c3c(c(O)c1C2=O)C[C@@](O)(C(=O)CO)C[C@@H]3O[C@H]1C[C@H](N)[C@@H](O)[C@H](C)O1` here?
Answer: 3530 nM

Question: Which IC50 does the source give for `CCn1c(C)cc(C(=O)COC(=O)c2ccccc2[N+](=O)[O-])c1C` here?
Answer: < 160 nM

Question: With `NC1=NC[C@H](Cc2ccc(O)cc2)N1CCCCC1CCCCC1` as the compound, how does the IC50 read?
Answer: > 80000 nM (inactive)

Question: With `Cn1nc(CC(=O)Nc2ccc3c(c2)CCC3)c2ccccc2c1=O` as the compound, how does the IC50 read?
Answer: > 80000 nM (inactive)
